Key:
COX-1 expression = assay: COX-1 mRNA abundance in ipsilateral hippocampus after MCA-O; format: in vivo, mouse; conditions: 1 h MCA-O, 2 h reperfusion, NPD1 0.16 μg/ml infused
Experimental: COX-2 RNA abundance in hippocampus and HN cells. Abundance of human-specific COX-1 and COX-2 RNA message was assayed using RT-PCR as described in Bazan, N. G., and Lukiw, W. J. (2002) J. Biol. Chem. 277, 30359-30367.
To determine COX-1 and COX-2 expression, mRNA abundance in the ipsilateral hippocampus was measured. […] A 3-fold increase of COX-2 was seen due to MCA-O reperfusion (FIG. 7C). The infusion of the precursor DHA as well as its product 10,17S-docosatriene (NPD1) inhibited COX-2 expression by 14% and 52%, respectively.

human COX-2 promoter = assay: IL-1β-induced human COX-2 promoter-luciferase assay in ARPE-19 cells; format: cell-based; conditions: IL-1β 10 ng/ml 8 h, NPD1 0.05 to 100 nM, read-out: IC50, IL-1β induction of the COX-2 promoter
Experimental: Transfection of ARPE-19 cells with human COX-2 (830 bp): ARPE-19 cells growing in 12-well plates were transfected with 5 μg human COX-2-luciferase construct (830 bp) by FuGENE-6 (obtained from Drs. S. Prescott and D. Dixon, Vanderbilt University, Nashville, Tenn.). Four hours later, the medium containing FuGENE-6 was removed, fresh DMEM-F12 (10% FBS) was added, and the cells further incubated 8 h at 37° C. Transfected cells were serum-starved for 4 h and challenged with IL-1β (10 ng/ml) for 8 h with or without NPD1. NPD1 was added at concentrations from 0.05 to 100 nm. Eight hours later, cell homogenates were made, protein concentrations were adjusted, and luciferase assays were performed using 20 μg equivalent protein in Monolight 2010 for 20 seconds with luciferin as substrate, as described below.
Luciferase assay: The medium containing IL-1β and NPD1 was removed, and the cells were washed with 1 ml cold PBS. The cells were scraped and centrifuged 2500×g for 20 minutes at 4° C. The cell pellet was re-suspended in 500 μl of 2×luciferase assay buffer (ALL, 0.2 mM tricine, 2 mM DTT, 30 mM MgSO4 and 10 mM ATP). […] The relative light units were determined by using an ALL luminometer recording over a 20-second interval, as described in Bazan, N. G., Fletcher, B. S., Herschman, H. R. & Mukherjee, P. K. (1994) Proc. Natl. Acad. Sci. U.S.A. 91:5252-5256. […]

In the case of `CC/C=C\C[C@H](O)\C=C/C=C/C=C/[C@H](O)C/C=C\C/C=C\CCC(=O)O` [NPD1, 10,17S-docosatriene], the “decrease of COX-1 expression (mRNA)” value (COX-1 expression) is reported as 19% and the IC50 (human COX-2 promoter) is reported as under 5 nM.

From patent publication US20050075398A1, “Neuroprotectin D1 protects against cellular apoptosis, stroke damage, alzheimer's disease and retinal diseases” (priority 2003, published 2005)
